Test results taken from patent US4175081A, “5-Substituted thiadiazole ureas” (priority 1977, dated 1979).

Key:
[1] = system: Turnip (TP); assay: Post-emergence herbicide test; type: in vivo, Brassica sp.; settings: two weeks after treatment; for pest or weed control at 4483.4 g/ha: 4 lb/acre
Protocol: (§1) Turnip (TP)--Brassica sp.
(§2) All crop and weed species were planted individually in 3' plastic pots containing potting soil. Four seeds each of corn, cotton, and snapbeans were seeded to a depth equal to the diameter of the seed. All other species were surface seeded and sprinkled with screened soil in an amount sufficient to cover the seed. Immediately after planting, all pots were watered by sub-irrigation in greenhouse trays. Pots for the pre-emergence phase were seeded one day before treatment.
(§3) Planting dates for the post-emergence phase were varied so that all seedlings would reach the desired stage of development simultaneously. The proper stage of seedling development for treatment in the post-emergence phase is as follows:
Pigweed and turnips: 1 or 2 true leaves above visible cotyledons.
(§4) Spray hood constants required to deliver the above volume are as follows:
(§5) Formulations for spray applications were prepared in 50 ml volumes with the following three components: […]
(§6) Spray applications were made in a hood containing a removable belt and fixed spray nozzle. For passage through the spray hood, one pot of each specie (pre-emergence phase) was placed on the rear half of the flat. Treatments were removed to the greenhouse after spraying. Watering during the observation period was done only by sub-irrigation.
(§7) Two weeks after treatment, pre- and post-emergence injury or control was visually rated, and the results were as shown in the following tables. Pre-emergence data are provided in TABLE III and post-emergence data are provided in TABLE IV, for compounds having the formula illustrated in TABLE I. Correspondingly, pre-emergence and post-emergence data, respectively, are set forth in TABLES V AND VI, for compounds having the formula illustrated in TABLE II.

[2] = system: Corn (CN); assay: Post-emergence herbicide test; type: in vivo; settings: Zea mays, 336 h, 4 lb/acre, two weeks after treatment
Protocol: as §2, §3
(§8) Compounds were tested at rates of application equivalent to 8 lbs. of actual compound per acre in a spray volume of 38 gallons per acre. Spray hood constants required to deliver the above volume are as follows:
(§9) Formulations for spray applications were prepared in 50 ml volumes with the following three components:
(§10) Formulations for the 4 lbs/acre rate were prepared by adjusting the amount of active ingredient accordingly.
as §6, §7

[3] = system: Barnyard grass (BG); assay: Post-emergence herbicide test; type: in vivo; settings: Echinochloa crus-galli, 336 h, 4 lb/acre, two weeks after treatment
Protocol: (§11) Barnyard grass (BG)--Echinochloa crus-galli
as §2, §3, §8, §9, §10, §6, §7

[4] = system: Johnson grass (JG); assay: Post-emergence herbicide test; type: in vivo, Sorgum helepense; settings: Sorghum halepense, 336 h, 4 lb/acre, two weeks after treatment
Protocol: (§12) Johnson grass (JG)--Sorgum helepense
as §2, §3, §8, §9, §10, §6, §7

[5] = system: Bean (BN); assay: Post-emergence herbicide test; type: in vivo, Phaseolus vulgaris var. Black Valentine; settings: two weeks after treatment; for pest or weed control at 4483.4 g/ha: 4 lb/acre
Protocol: Bean (BN)--Phaseolus vulgaris var. Black Valentine
as §2, §3
Beans: primary leaves expanded, growing point at primary leaf nodes.
as §4, §9, §10, §6, §7

[6] = system: Crabgrass (CG); assay: Post-emergence herbicide test; type: in vivo, Digitaria sanquinalis; settings: two weeks after treatment; for pest or weed control at 4483.4 g/ha: 4 lb/acre
Protocol: (§13) Crabgrass (CG)--Digitaria sanquinalis
as §2, §3, §4, §5, §6, §7

[7] = system: Cotton (CT); assay: Post-emergence herbicide test; type: in vivo, Gossypium hirsutum var. DPL smooth leaf; settings: two weeks after treatment; for pest or weed control at 4483.4 g/ha: 4 lb/acre
Protocol: Cotton (CT)--Gossypium hirsutum var. DPL smooth leaf
as §2, §3
Cotton: first true leaf 1' in length; expanded cotyledons.
as §4, §9, §10, §6, §7

[8] = system: Turnip (TP); assay: Pre-emergence herbicide test; type: in vivo, Brassica sp.; settings: two weeks after treatment; for pest or weed control at 4483.4 g/ha: 4 lb/acre
Protocol: as §1, §2, §4, §5, §6, §7

[9] = system: Crabgrass (CG); assay: Pre-emergence herbicide test; type: in vivo, Digitaria sanquinalis; settings: two weeks after treatment; for pest or weed control at 4483.4 g/ha: 4 lb/acre
Protocol: as §13, §2, §4, §5, §6, §7

[10] = system: Johnson grass (JG); assay: Pre-emergence herbicide test; type: in vivo, Sorgum helepense; settings: Sorghum halepense, 336 h, two weeks after treatment
Protocol: as §12, §2, §8, §9, §10, §6, §7

[11] = system: Barnyard grass (BG); assay: Pre-emergence herbicide test; type: in vivo; settings: Echinochloa crus-galli, 336 h, 4 lb/acre, two weeks after treatment
Protocol: as §11, §2, §8, §9, §10, §6, §7

[12] = Brassica rapa, post-emergence, 336 h
[13] = Phaseolus vulgaris, post-emergence, 336 h
[14] = Digitaria sanguinalis, post-emergence, 336 h
[15] = Gossypium hirsutum, post-emergence, 336 h
[16] = Brassica rapa, pre-emergence, 336 h
[17] = Digitaria sanguinalis, pre-emergence, 336 h

Molecule `CCCCCCSc1nnc(NC(=O)NC)s1` [Example 60] has a pest or weed control at 2241.7 g/ha ([1]; Brassica rapa, post-emergence, 336 h, 2 lb/acre) of 100%, a pest or weed control at 4483.4 g/ha [1, 12] of 100% and a pest or weed control at 4483.4 g/ha [2] of 60%. It also gave a pest or weed control at 4483.4 g/ha [3] of 40%, a pest or weed control at 4483.4 g/ha [4] of 70% and a pest or weed control at 4483.4 g/ha [5, 13] of 100%. It also gave a pest or weed control at 4483.4 g/ha [6, 14] of 80% and a pest or weed control at 4483.4 g/ha [7, 15] of 70%.
`CCCCCS(=O)(=O)c1nnc(NC(=O)NC)s1` [Example 64] was tested, and the pest or weed control at 4483.4 g/ha [1, 12] was 90%, the pest or weed control at 4483.4 g/ha [2] was 30% and the pest or weed control at 4483.4 g/ha [3] was 60%. For the same molecule, the pest or weed control at 4483.4 g/ha [4] was 50%, the pest or weed control at 4483.4 g/ha [5, 13] was 90% and the pest or weed control at 4483.4 g/ha [6, 14] was 90%. For the same molecule, the pest or weed control at 4483.4 g/ha [7, 15] was 70%.
In the case of `CCCCS(=O)(=O)c1nnc(NC(=O)NC)s1` [Example 65], the pest or weed control at 4483.4 g/ha [1, 12] is reported as 100%, the pest or weed control at 4483.4 g/ha [2] is reported as 30% and the pest or weed control at 4483.4 g/ha [3] is reported as 90%. It also gave a pest or weed control at 4483.4 g/ha [4] of 60%, a pest or weed control at 4483.4 g/ha [5, 13] of 100% and a pest or weed control at 4483.4 g/ha [6, 14] of 90%. The pest or weed control at 4483.4 g/ha [7, 15] was 70%.
For `NC(=O)Nc1nnc(C(F)(F)F)s1` [Example 70], the “Post-emergence activity, % control, TP” value ([1]; 5 lb/acre) was 80%, the “Post-emergence activity, % control, TP” value ([1]; 10 lb/acre) was 80% and the “Pre-emergence activity, % control, TP” value ([8]; 5 lb/acre) was 10%. The “Pre-emergence activity, % control, TP” value ([8]; 10 lb/acre) was 10%, the “Pre-emergence activity, % control, CG” value ([9]; 5 lb/acre) was 10% and the “Pre-emergence activity, % control, CG” value ([9]; 10 lb/acre) was 10%. The “Post-emergence activity, % control, BN” value ([5]; 5 lb/acre) was 50%, the “Post-emergence activity, % control, BN” value ([5]; 10 lb/acre) was 50% and the “Post-emergence activity, % control, CG” value ([6]; 5 lb/acre) was 20%. The “Post-emergence activity, % control, CG” value ([6]; 10 lb/acre) was 20%, the “Post-emergence activity, % control, CT” value ([7]; 5 lb/acre) was 20% and the “Post-emergence activity, % control, CT” value ([7]; 10 lb/acre) was 20%.
In the case of `CNC(=O)Nc1nnc(C(C)C)s1` [Example 82], the pest or weed control at 4483.4 g/ha [1, 12] is reported as 80%, the pest or weed control at 4483.4 g/ha [8, 16] is reported as 20% and the pest or weed control at 4483.4 g/ha [9, 17] is reported as 30%. The pest or weed control at 4483.4 g/ha [5, 13] was 60%, the pest or weed control at 4483.4 g/ha [6, 14] was 50% and the pest or weed control at 4483.4 g/ha ([10]; 4 lb/acre) was 0%. For the same molecule, the pest or weed control at 4483.4 g/ha [7, 15] was 80%.
Molecule `Cc1nnc(NC(N)=O)s1` [Example 84, reference compound] has a pest or weed control at 11208.5 g/ha ([1]; Brassica rapa, post-emergence, 336 h, 10 lb/acre) of 80%, a pest or weed control at 11208.5 g/ha ([8]; Brassica rapa, pre-emergence, 336 h, 10 lb/acre) of 0% and a pest or weed control at 11208.5 g/ha ([9]; Digitaria sanguinalis, pre-emergence, 336 h, 10 lb/acre) of 0%. The pest or weed control at 11208.5 g/ha ([5]; Phaseolus vulgaris, post-emergence, 336 h, 10 lb/acre) was 50%, the pest or weed control at 11208.5 g/ha ([6]; Digitaria sanguinalis, post-emergence, 336 h, 10 lb/acre) was 20% and the pest or weed control at 11208.5 g/ha ([10]; 10 lb/acre) was 50%. It also gave a pest or weed control at 11208.5 g/ha ([7]; Gossypium hirsutum, post-emergence, 336 h, 10 lb/acre) of 20%.
In the case of `CNC(=O)Nc1nnc(C2CC2)s1` [Example 85], the pest or weed control at 4483.4 g/ha [1, 12] is reported as 60%, the pest or weed control at 4483.4 g/ha [8, 16] is reported as 0% and the pest or weed control at 4483.4 g/ha [9, 17] is reported as 0%. For the same molecule, the pest or weed control at 4483.4 g/ha [5, 13] was 50%, the pest or weed control at 4483.4 g/ha [6, 14] was 30% and the pest or weed control at 4483.4 g/ha [7, 15] was 80%. It also gave a pest or weed control at 4483.4 g/ha [11] of 0%.
